Measured values: ChEMBL document CHEMBL4649986, “Chemical probes and inhibitors of bromodomains outside the BET family” (Medchemcomm, 2016)

Tests used:
[1] = target: Bromodomain-containing protein 4 (Homo sapiens) (UniProt O60885); details: Compound concentration 10.0 uM, Protein concentration 2.0 uM
[2] = target: Bromodomain-containing protein 9 (Homo sapiens) (UniProt Q9H8M2); details: Compound concentration 10.0 uM, Protein concentration 2.0 uM
[3] = target: Transcription intermediary factor 1-beta (Homo sapiens) (UniProt Q13263); details: Compound concentration 10.0 uM, Protein concentration 2.0 uM
[4] = target: Protein polybromo-1 (Homo sapiens) (UniProt Q86U86); details: Compound concentration 10.0 uM, Protein concentration 2.0 uM
Sequence of Protein polybromo-1 (Homo sapiens) (Q86U86 whole entry, the tested form may be a part): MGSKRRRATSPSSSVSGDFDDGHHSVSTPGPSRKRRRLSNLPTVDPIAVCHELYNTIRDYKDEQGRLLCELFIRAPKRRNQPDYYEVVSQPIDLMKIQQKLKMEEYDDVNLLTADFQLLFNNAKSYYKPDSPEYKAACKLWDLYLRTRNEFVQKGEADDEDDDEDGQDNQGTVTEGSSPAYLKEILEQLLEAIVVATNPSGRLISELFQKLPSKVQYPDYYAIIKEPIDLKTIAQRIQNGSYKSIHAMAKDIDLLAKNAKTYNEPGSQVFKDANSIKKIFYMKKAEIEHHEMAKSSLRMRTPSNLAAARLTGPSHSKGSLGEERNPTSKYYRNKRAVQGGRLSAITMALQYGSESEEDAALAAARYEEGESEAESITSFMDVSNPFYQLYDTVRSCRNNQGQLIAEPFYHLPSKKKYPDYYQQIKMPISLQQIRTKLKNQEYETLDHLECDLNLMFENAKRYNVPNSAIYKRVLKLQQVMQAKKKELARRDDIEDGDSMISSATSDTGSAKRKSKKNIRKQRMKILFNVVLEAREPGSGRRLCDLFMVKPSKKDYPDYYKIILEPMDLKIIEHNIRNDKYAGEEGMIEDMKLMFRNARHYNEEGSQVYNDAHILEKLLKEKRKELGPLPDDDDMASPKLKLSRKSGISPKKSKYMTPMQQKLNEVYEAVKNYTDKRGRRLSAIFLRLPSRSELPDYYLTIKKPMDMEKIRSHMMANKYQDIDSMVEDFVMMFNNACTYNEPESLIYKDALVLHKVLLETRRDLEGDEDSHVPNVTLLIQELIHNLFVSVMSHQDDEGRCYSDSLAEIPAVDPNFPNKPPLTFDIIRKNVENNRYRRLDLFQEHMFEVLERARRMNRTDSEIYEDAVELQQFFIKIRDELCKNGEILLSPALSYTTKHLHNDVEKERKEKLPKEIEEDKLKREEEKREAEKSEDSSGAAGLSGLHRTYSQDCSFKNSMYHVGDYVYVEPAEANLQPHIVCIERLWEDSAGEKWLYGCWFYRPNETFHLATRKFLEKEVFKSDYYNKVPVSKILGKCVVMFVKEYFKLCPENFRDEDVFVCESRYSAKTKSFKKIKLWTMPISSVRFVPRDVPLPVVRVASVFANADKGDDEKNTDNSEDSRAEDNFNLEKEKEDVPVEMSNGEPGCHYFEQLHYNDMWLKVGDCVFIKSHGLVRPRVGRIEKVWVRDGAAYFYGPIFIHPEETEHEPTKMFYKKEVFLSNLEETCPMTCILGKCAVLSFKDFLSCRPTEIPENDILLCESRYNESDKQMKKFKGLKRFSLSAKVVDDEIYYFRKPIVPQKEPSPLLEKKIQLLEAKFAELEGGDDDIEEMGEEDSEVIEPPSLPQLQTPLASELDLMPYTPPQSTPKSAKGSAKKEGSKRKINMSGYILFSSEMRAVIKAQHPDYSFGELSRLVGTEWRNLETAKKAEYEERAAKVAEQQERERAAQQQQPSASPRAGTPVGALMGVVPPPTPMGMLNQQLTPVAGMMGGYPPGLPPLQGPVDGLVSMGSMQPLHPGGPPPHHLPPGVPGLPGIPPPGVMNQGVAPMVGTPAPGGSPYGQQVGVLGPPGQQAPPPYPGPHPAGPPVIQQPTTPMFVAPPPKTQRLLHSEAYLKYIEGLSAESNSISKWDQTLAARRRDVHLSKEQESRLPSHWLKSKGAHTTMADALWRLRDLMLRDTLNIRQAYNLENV

[5] = target: T1, Nucleosome-remodeling factor subunit BPTF (Homo sapiens, UniProt Q12830); assay: Alphascreen assay. Binding to FALZA (domain start/stop: S2791-H2911) by alphascreen assay
[6] = target: T2, Chromatin remodeling regulator CECR2 (Homo sapiens, UniProt Q9BXF3); assay: Alphascreen assay. Binding to CECR2A (domain start/stop: P420-D543) by alphascreen assay
Target sequence in this assay (Q9BXF3 whole entry): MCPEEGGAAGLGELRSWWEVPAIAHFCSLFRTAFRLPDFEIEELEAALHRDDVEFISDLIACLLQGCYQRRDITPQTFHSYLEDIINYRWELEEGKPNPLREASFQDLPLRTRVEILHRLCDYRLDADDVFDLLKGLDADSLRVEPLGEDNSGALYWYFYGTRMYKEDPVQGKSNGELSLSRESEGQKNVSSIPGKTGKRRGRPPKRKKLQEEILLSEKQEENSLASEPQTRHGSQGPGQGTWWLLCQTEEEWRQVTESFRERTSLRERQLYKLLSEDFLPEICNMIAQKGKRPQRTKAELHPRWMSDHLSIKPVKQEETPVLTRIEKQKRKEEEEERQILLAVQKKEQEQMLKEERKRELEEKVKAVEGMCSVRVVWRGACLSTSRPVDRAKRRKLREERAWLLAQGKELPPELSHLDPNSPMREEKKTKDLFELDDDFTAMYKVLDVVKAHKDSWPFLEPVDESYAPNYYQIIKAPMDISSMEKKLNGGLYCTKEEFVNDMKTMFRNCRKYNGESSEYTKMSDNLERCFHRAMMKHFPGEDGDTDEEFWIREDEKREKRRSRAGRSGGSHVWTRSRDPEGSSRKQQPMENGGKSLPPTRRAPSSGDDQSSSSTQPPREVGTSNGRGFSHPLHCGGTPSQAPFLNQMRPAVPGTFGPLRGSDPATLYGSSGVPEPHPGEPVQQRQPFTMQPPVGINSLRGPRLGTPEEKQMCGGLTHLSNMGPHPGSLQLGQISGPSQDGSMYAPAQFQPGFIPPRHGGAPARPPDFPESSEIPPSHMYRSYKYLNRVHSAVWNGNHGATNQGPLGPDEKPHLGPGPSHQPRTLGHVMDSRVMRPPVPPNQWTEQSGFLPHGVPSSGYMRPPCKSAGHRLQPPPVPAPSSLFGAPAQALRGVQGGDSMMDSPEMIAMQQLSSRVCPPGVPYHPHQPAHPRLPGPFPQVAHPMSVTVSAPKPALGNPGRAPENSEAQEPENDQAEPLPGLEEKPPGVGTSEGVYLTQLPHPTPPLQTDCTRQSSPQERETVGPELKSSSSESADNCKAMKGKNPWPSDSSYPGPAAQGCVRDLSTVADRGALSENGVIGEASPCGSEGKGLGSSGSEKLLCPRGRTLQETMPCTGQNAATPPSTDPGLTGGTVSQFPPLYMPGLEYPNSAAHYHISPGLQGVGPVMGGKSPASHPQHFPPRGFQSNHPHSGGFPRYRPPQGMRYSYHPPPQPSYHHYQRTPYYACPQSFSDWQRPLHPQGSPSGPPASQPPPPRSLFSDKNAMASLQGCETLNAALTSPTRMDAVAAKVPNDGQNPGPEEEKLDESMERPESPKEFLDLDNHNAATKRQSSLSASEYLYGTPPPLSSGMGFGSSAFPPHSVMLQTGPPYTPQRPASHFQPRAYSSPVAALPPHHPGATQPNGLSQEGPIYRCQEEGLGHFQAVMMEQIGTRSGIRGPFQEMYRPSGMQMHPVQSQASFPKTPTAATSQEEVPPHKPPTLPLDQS

[7] = target: Transcription initiation factor TFIID subunit 1 (Homo sapiens) (UniProt P21675); details: Compound concentration 10.0 uM, Protein concentration 2.0 uM
[8] = target: Nuclear body protein SP140 (Homo sapiens) (UniProt Q13342); details: Compound concentration 10.0 uM, Protein concentration 2.0 uM
[9] = target: ATPase family AAA domain-containing protein 2 (Homo sapiens) (UniProt Q6PL18); details: Compound concentration 10.0 uM, Protein concentration 2.0 uM
[10] = target: Peregrin (Homo sapiens) (UniProt P55201); details: Compound concentration 10.0 uM, Protein concentration 2.0 uM
Sequence of Peregrin (Homo sapiens) (P55201 whole entry): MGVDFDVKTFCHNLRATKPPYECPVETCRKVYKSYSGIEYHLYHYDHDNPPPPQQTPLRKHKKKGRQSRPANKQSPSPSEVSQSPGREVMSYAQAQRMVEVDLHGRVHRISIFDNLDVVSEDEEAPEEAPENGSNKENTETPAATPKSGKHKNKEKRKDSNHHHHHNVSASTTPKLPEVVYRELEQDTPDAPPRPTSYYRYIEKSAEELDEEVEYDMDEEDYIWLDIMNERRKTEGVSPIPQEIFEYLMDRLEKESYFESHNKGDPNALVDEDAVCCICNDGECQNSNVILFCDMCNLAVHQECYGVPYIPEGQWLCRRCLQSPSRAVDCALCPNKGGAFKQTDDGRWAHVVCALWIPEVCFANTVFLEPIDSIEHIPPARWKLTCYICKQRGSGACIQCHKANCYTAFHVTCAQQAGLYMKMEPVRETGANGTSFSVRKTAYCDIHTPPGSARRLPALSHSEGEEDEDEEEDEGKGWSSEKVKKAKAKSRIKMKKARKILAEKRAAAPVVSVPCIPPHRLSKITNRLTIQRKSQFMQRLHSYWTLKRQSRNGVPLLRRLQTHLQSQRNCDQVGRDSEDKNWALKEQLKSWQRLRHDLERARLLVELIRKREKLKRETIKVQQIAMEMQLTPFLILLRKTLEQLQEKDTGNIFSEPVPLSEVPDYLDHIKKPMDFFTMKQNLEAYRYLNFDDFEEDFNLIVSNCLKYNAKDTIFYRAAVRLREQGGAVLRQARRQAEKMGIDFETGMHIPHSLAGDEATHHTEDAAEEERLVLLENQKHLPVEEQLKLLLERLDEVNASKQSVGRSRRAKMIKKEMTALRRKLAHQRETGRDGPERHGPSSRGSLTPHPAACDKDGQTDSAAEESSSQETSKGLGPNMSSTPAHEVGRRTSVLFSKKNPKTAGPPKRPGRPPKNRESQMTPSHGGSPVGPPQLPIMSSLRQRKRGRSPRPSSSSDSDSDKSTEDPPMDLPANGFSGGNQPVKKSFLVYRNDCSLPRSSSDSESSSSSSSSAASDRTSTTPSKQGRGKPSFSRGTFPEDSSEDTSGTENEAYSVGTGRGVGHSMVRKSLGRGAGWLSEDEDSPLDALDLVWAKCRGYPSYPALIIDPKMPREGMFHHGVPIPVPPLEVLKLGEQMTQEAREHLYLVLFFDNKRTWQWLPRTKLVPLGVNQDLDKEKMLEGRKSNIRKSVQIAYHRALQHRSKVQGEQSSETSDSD

[11] = target: Nuclear body protein SP140-like protein (Homo sapiens) (UniProt Q9H930); details: Compound concentration 10.0 uM, Protein concentration 2.0 uM
[12] = target: Bromodomain-containing protein 2 (Homo sapiens) (UniProt P25440); details: Compound concentration 10.0 uM, Protein concentration 2.0 uM
[13] = target: ATPase family AAA domain-containing protein 2B (Homo sapiens) (UniProt Q9ULI0); details: Compound concentration 10.0 uM, Protein concentration 2.0 uM
[14] = target: Bromodomain-containing protein 3 (Homo sapiens) (UniProt Q15059); details: Compound concentration 10.0 uM, Protein concentration 2.0 uM
Sequence of Bromodomain-containing protein 3 (Homo sapiens) (Q15059 2-726 limits assumed): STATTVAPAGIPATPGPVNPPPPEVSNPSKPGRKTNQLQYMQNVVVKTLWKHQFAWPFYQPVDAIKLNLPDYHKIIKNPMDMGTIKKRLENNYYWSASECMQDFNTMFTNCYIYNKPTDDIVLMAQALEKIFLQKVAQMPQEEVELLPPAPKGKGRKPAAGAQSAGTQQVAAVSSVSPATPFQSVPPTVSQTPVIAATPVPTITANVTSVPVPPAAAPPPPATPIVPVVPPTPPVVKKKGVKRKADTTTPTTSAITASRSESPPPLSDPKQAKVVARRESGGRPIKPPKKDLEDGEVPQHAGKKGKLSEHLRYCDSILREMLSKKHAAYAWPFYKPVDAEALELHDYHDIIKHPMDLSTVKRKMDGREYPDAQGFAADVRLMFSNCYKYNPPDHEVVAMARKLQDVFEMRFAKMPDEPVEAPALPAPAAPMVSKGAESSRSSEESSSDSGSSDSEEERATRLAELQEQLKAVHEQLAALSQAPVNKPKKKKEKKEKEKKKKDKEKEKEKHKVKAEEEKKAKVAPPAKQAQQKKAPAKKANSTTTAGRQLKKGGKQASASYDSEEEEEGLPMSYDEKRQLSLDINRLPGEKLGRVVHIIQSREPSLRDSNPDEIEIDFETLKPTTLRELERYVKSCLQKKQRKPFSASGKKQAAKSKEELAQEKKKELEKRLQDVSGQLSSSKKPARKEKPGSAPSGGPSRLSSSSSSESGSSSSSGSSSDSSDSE

[15] = target: SWI/SNF-related matrix-associated actin-dependent regulator of chromatin subfamily A member 4 (Homo sapiens) (UniProt P51532); details: Compound concentration 10.0 uM, Protein concentration 2.0 uM
[16] = target: Bromodomain adjacent to zinc finger domain protein 2B (Homo sapiens) (UniProt Q9UIF8); details: Compound concentration 10.0 uM, Protein concentration 2.0 uM
[17] = target: PH-interacting protein (Homo sapiens) (UniProt Q8WWQ0); details: Compound concentration 10.0 uM, Protein concentration 2.0 uM
[18] = target: T2, Chromatin remodeling regulator CECR2; assay: Alphascreen assay. Binding to CECR2A (domain start/stop: P420-H538) by alphascreen assay
Target sequence in this assay (Q9BXF3 whole entry): as the sequence (Q9BXF3 whole entry) above

[19] = target: Protein polybromo-1 (Homo sapiens) (UniProt Q86U86); details: Compound concentration 10.0 uM, Protein concentration 2.0 uM; remark: listed apart in the source
[20] = target: Protein polybromo-1 (Homo sapiens) (UniProt Q86U86); details: Compound concentration 10.0 uM, Protein concentration 2.0 uM; remark: listed apart in the source
[21] = target: Bromodomain adjacent to zinc finger domain protein 1A (Homo sapiens) (UniProt Q9NRL2); details: Compound concentration 10.0 uM, Protein concentration 2.0 uM
[22] = target: Transcription initiation factor TFIID subunit 1 (Homo sapiens) (UniProt P21675); details: Compound concentration 10.0 uM, Protein concentration 2.0 uM; remark: listed apart in the source
[23] = target: Tyrosine-protein kinase BAZ1B (Homo sapiens) (UniProt Q9UIG0); details: Compound concentration 10.0 uM, Protein concentration 2.0 uM
[24] = target: Histone acetyltransferase KAT2A (Homo sapiens) (UniProt Q92830); details: Compound concentration 10.0 uM, Protein concentration 2.0 uM
[25] = target: CREB-binding protein (Homo sapiens) (UniProt Q92793); details: Compound concentration 10.0 uM, Protein concentration 2.0 uM
[26] = target: Histone-lysine N-methyltransferase 2A (Homo sapiens) (UniProt Q03164); details: Compound concentration 10.0 uM, Protein concentration 2.0 uM
[27] = target: Bromodomain testis-specific protein (Homo sapiens) (UniProt Q58F21); details: Compound concentration 10.0 uM, Protein concentration 2.0 uM
[28] = target: Protein polybromo-1 (Homo sapiens) (UniProt Q86U86); details: Compound concentration 10.0 uM, Protein concentration 2.0 uM; remark: listed apart in the source
[29] = target: Protein polybromo-1 (Homo sapiens) (UniProt Q86U86); details: Compound concentration 10.0 uM, Protein concentration 2.0 uM; remark: listed apart in the source
[30] = target: T2, Chromatin remodeling regulator CECR2; details: Compound concentration 10.0 uM, Protein concentration 2.0 uM
[31] = target: Peregrin (Homo sapiens) (UniProt P55201); details: Compound concentration 10.0 uM, Protein concentration 2.0 uM; remark: listed apart in the source
[32] = target: Transcription initiation factor TFIID subunit 1-like (Homo sapiens) (UniProt Q8IZX4); details: Compound concentration 10.0 uM, Protein concentration 2.0 uM
[33] = target: Bromodomain-containing protein 3 (Homo sapiens) (UniProt Q15059); details: Compound concentration 10.0 uM, Protein concentration 2.0 uM; remark: listed apart in the source
[34] = target: Bromodomain testis-specific protein (Homo sapiens) (UniProt Q58F21); details: Compound concentration 10.0 uM, Protein concentration 2.0 uM; remark: listed apart in the source
[35] = target: Histone acetyltransferase KAT2B (Homo sapiens) (UniProt Q92831); details: Compound concentration 10.0 uM, Protein concentration 2.0 uM
[36] = target: Transcription intermediary factor 1-alpha (Homo sapiens) (UniProt O15164); details: Compound concentration 10.0 uM, Protein concentration 2.0 uM
[37] = target: T1, Nucleosome-remodeling factor subunit BPTF; details: Compound concentration 10.0 uM, Protein concentration 2.0 uM
[38] = target: Bromodomain-containing protein 1 (Homo sapiens) (UniProt O95696); details: Compound concentration 10.0 uM, Protein concentration 2.0 uM
[39] = target: Transcription initiation factor TFIID subunit 1-like (Homo sapiens) (UniProt Q8IZX4); details: Compound concentration 10.0 uM, Protein concentration 2.0 uM; remark: listed apart in the source
[40] = target: SWI/SNF-related matrix-associated actin-dependent regulator of chromatin subfamily A member 2 (Homo sapiens) (UniProt P51531); details: Compound concentration 10.0 uM, Protein concentration 2.0 uM
[41] = target: Histone acetyltransferase p300 (Homo sapiens) (UniProt Q09472); details: Compound concentration 10.0 uM, Protein concentration 2.0 uM
[42] = target: Bromodomain adjacent to zinc finger domain protein 2A (Homo sapiens) (UniProt Q9UIF9); details: Compound concentration 10.0 uM, Protein concentration 2.0 uM
[43] = target: Bromodomain and WD repeat-containing protein 3 (Homo sapiens) (UniProt Q6RI45); details: Compound concentration 10.0 uM, Protein concentration 2.0 uM
[44] = target: Bromodomain and WD repeat-containing protein 1 (Homo sapiens) (UniProt Q9NSI6); details: Compound concentration 10.0 uM, Protein concentration 2.0 uM
[45] = target: Protein polybromo-1 (Homo sapiens) (UniProt Q86U86); details: Compound concentration 10.0 uM, Protein concentration 2.0 uM; remark: listed apart in the source
[46] = target: Bromodomain-containing protein 2 (Homo sapiens) (UniProt P25440); details: Compound concentration 10.0 uM, Protein concentration 2.0 uM; remark: listed apart in the source
[47] = target: Histone-lysine N-methyltransferase ASH1L (Homo sapiens) (UniProt Q9NR48); details: Compound concentration 10.0 uM, Protein concentration 2.0 uM
[48] = target: Bromodomain-containing protein 7 (Homo sapiens) (UniProt Q9NPI1); details: Compound concentration 10.0 uM, Protein concentration 2.0 uM
[49] = target: Bromodomain and PHD finger-containing protein 3 (Homo sapiens) (UniProt Q9ULD4); details: Compound concentration 10.0 uM, Protein concentration 2.0 uM
[50] = target: Peregrin (Homo sapiens, UniProt P55201); assay: Alphascreen assay. Binding to BRPF1B (domain start/stop: M626-G740) by alphascreen assay

Compound: CCCS(=O)(=O)c1nc(NC2CC2)cc(-c2ccc3c(ccn3C3CC(C)(C)NC(C)(C)C3)c2)n1
- ΔTm [1]: 1.85 °C
- ΔTm [2]: 0.96 °C
- ΔTm [3]: 1.37 °C
- ΔTm [4]: 0.63 °C
- IC50 [5]: 1.46 µM
- IC50 [6]: 0.0375 µM
- ΔTm [7]: 1.25 °C
- ΔTm [8]: 0.58 °C
- ΔTm [9]: 1.07 °C
- ΔTm [10]: 0.38 °C
- ΔTm [11]: 0.62 °C
- ΔTm [12]: 0.54 °C
- ΔTm [13]: 0.82 °C
- ΔTm [14]: 0.37 °C
- ΔTm [15]: 1.26 °C
- ΔTm [16]: 0.4 °C
- ΔTm [17]: -0.17 °C
- IC50 [18]: 0.0193 µM
- ΔTm [19]: 0.88 °C
- ΔTm [20]: 0.51 °C
- ΔTm [21]: -0.77 °C
- ΔTm [22]: 1.09 °C
- ΔTm [23]: -0.35 °C
- ΔTm [24]: 1.2 °C
- ΔTm [25]: 0.36 °C
- ΔTm [26]: 0.08 °C
- ΔTm [27]: 0.51 °C
- ΔTm [28]: 0.48 °C
- ΔTm [29]: -0.21 °C
- ΔTm [30]: 12.6 °C
- ΔTm [31]: 0.16 °C
- ΔTm [32]: 1.56 °C
- ΔTm [33]: 0.35 °C
- ΔTm [34]: -0.15 °C
- ΔTm [35]: 0.62 °C
- ΔTm [36]: 1.38 °C
- ΔTm [37]: 1.67 °C
- ΔTm [38]: 0.34 °C
- ΔTm [39]: 0.73 °C
- ΔTm [40]: 0.87 °C
- ΔTm [41]: 0.85 °C
- ΔTm [42]: 0.14 °C
- ΔTm [43]: -0.86 °C
- ΔTm [44]: 1.71 °C
- ΔTm [45]: 0.34 °C
- ΔTm [46]: 0.39 °C
- ΔTm [47]: 0.48 °C
- ΔTm [48]: 1.3 °C
- ΔTm [49]: 0.48 °C
- IC50 [50]: 4.4 µM
